Test results from patent US10632106B2, “Methods of cancer treatment with 2-(1′H-Indole-3′-carbonyl)-thiazole-4-carboxylic acid methyl ester” (Ariagen, Inc., priority 2009, dated 2020).

Test: Effects of oral water administration on ITE dosed mice
Assay type: in vivo
Design: key to feces appearance: Moderate; Dry
Method: Oral injection of water was initiated at the same day i.p. administration of ITE was started. Daily oral gavage at 10 or 20 ml/kg was performed immediately following daily i.p. injection of ITE or DMSO continuously for the entire duration of the study. Both oral and i.p. injection were accidentally skipped at day 14 due to a mistake of the experimenter(s) and all of the other dosing were executed normally. Bodyweights (individual), food consumed (in group), feces weights (in group), and feces appearance (in group) were recorded every two days. Death of animal(s) and approximate cause of death etc. were also recorded.

[1] = ITE-L 200 mg/kg i.p. + Water-0, day 4
[2] = ITE-L 200 mg/kg i.p. + Water-0, day 6
[3] = ITE-L 200 mg/kg i.p. + Water-0, day 8
[4] = ITE-L 200 mg/kg i.p. + Water-0, day 10
[5] = ITE-L 200 mg/kg i.p. + Water-0, day 12
[6] = ITE-L 200 mg/kg i.p. + Water-0, day 14
[7] = ITE-L 200 mg/kg i.p. + Water-0, day 18 (line r16)
[8] = ITE-L 200 mg/kg i.p. + Water-0, day 18 (line r17)
[9] = ITE-L 200 mg/kg i.p. + Water-0, day 20
[10] = ITE-L 200 mg/kg i.p. + Water-0, day 22
[11] = ITE-L 200 mg/kg i.p. + Water-0, day 24
[12] = ITE-L 200 mg/kg i.p. + Water-0, day 26
[13] = ITE-L 200 mg/kg i.p. + Water-0, day 28
[14] = ITE-L 200 mg/kg i.p. + Water-0, day 30
[15] = ITE-L 200 mg/kg i.p. + Water-0, day 32
[16] = ITE-L 200 mg/kg i.p. + Water-0, day 34
[17] = ITE-L 200 mg/kg i.p. + Water-0, day 36
[18] = ITE-L 200 mg/kg i.p. + Water-H 20 ml/kg, day 4
[19] = ITE-L 200 mg/kg i.p. + Water-H 20 ml/kg, day 6
[20] = ITE-L 200 mg/kg i.p. + Water-H 20 ml/kg, day 8
[21] = ITE-L 200 mg/kg i.p. + Water-H 20 ml/kg, day 10
[22] = ITE-L 200 mg/kg i.p. + Water-H 20 ml/kg, day 12
[23] = ITE-L 200 mg/kg i.p. + Water-H 20 ml/kg, day 14
[24] = ITE-L 200 mg/kg i.p. + Water-H 20 ml/kg, day 18 (line r16)
[25] = ITE-L 200 mg/kg i.p. + Water-H 20 ml/kg, day 18 (line r17)
[26] = ITE-L 200 mg/kg i.p. + Water-H 20 ml/kg, day 20
[27] = ITE-L 200 mg/kg i.p. + Water-H 20 ml/kg, day 22
[28] = ITE-L 200 mg/kg i.p. + Water-H 20 ml/kg, day 24
[29] = ITE-L 200 mg/kg i.p. + Water-H 20 ml/kg, day 26
[30] = ITE-L 200 mg/kg i.p. + Water-H 20 ml/kg, day 28
[31] = ITE-L 200 mg/kg i.p. + Water-H 20 ml/kg, day 30
[32] = ITE-L 200 mg/kg i.p. + Water-H 20 ml/kg, day 32
[33] = ITE-L 200 mg/kg i.p. + Water-H 20 ml/kg, day 34
[34] = ITE-L 200 mg/kg i.p. + Water-H 20 ml/kg, day 36
[35] = ITE-L 200 mg/kg i.p. + Water-L 10 ml/kg, day 4
[36] = ITE-L 200 mg/kg i.p. + Water-L 10 ml/kg, day 6
[37] = ITE-L 200 mg/kg i.p. + Water-L 10 ml/kg, day 8
[38] = ITE-L 200 mg/kg i.p. + Water-L 10 ml/kg, day 10
[39] = ITE-L 200 mg/kg i.p. + Water-L 10 ml/kg, day 12
[40] = ITE-L 200 mg/kg i.p. + Water-L 10 ml/kg, day 14
[41] = ITE-L 200 mg/kg i.p. + Water-L 10 ml/kg, day 18 (line r16)
[42] = ITE-L 200 mg/kg i.p. + Water-L 10 ml/kg, day 18 (line r17)
[43] = ITE-L 200 mg/kg i.p. + Water-L 10 ml/kg, day 20
[44] = ITE-L 200 mg/kg i.p. + Water-L 10 ml/kg, day 22
[45] = ITE-L 200 mg/kg i.p. + Water-L 10 ml/kg, day 24
[46] = ITE-L 200 mg/kg i.p. + Water-L 10 ml/kg, day 26
[47] = ITE-L 200 mg/kg i.p. + Water-L 10 ml/kg, day 28
[48] = ITE-L 200 mg/kg i.p. + Water-L 10 ml/kg, day 30
[49] = ITE-L 200 mg/kg i.p. + Water-L 10 ml/kg, day 32
[50] = ITE-L 200 mg/kg i.p. + Water-L 10 ml/kg, day 34
[51] = ITE-L 200 mg/kg i.p. + Water-L 10 ml/kg, day 36

COC(=O)c1csc(C(=O)c2c[nH]c3ccccc23)n1 [ITE, 2-(1′H-indole-3′-carbonyl)-thiazole-4-carboxylic acid methyl ester]
D: feces appearance [3] | feces appearance [4] | feces appearance [5] | feces appearance [6] | feces appearance [7] | feces appearance [8] | feces appearance [9] | feces appearance [10] | feces appearance [11] | feces appearance [12] | feces appearance [13] | feces appearance [14] | feces appearance [15] | feces appearance [16] | feces appearance [17] | feces appearance [20] | feces appearance [21] | feces appearance [22] | feces appearance [23] | feces appearance [24] | feces appearance [25] | feces appearance [26] | feces appearance [27] | feces appearance [28] | feces appearance [29] | feces appearance [37] | feces appearance [38] | feces appearance [39] | feces appearance [40] | feces appearance [41] | feces appearance [42] | feces appearance [43] | feces appearance [44] | feces appearance [45] | feces appearance [46]
1: number of mice that died [13] | number of mice that died [14] | number of mice that died [15] | number of mice that died [16] | number of mice that died [17]
0: number of mice that died [1] | number of mice that died [2] | number of mice that died [3] | number of mice that died [4] | number of mice that died [5] | number of mice that died [6] | number of mice that died [7] | number of mice that died [8] | number of mice that died [9] | number of mice that died [10] | number of mice that died [11] | number of mice that died [12] | number of mice that died [18] | number of mice that died [19] | number of mice that died [20] | number of mice that died [21] | number of mice that died [22] | number of mice that died [23] | number of mice that died [24] | number of mice that died [25] | number of mice that died [26] | number of mice that died [27] | number of mice that died [28] | number of mice that died [29] | number of mice that died [30] | number of mice that died [31] | number of mice that died [32] | number of mice that died [33] | number of mice that died [34] | number of mice that died [35] | number of mice that died [36] | number of mice that died [37] | number of mice that died [38] | number of mice that died [39] | number of mice that died [40] | number of mice that died [41] | number of mice that died [42] | number of mice that died [43] | number of mice that died [44] | number of mice that died [45] | number of mice that died [46] | number of mice that died [47] | number of mice that died [48] | number of mice that died [49] | number of mice that died [50] | number of mice that died [51]
M: feces appearance [1] | feces appearance [2] | feces appearance [18] | feces appearance [19] | feces appearance [30] | feces appearance [31] | feces appearance [32] | feces appearance [33] | feces appearance [34] | feces appearance [35] | feces appearance [36] | feces appearance [47] | feces appearance [48] | feces appearance [49] | feces appearance [50] | feces appearance [51]
